Patent US20260070929A1, “METHODS AND COMPOSITIONS FOR MODULATING KRAS(G12D)” (Ranok Therapeutics (Hangzhou) Co. LTD., priority 2022, published 2026)
Where two headings read alike, the source gives them in different places.

Assays:
[1] = target: T1, KRAS(G12D)/SOS1 (Homo sapiens, UniProt P01116, G12D); test: KRAS(G12D)/SOS1 homogeneous time-resolved fluorescence (HTRF) assay; format: binding; conditions: absence of GTP; 4° C., 3 hr
T1 construct: purchased Cisbio 63ADK000CB17PEH
Method in brief: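 HTRF kit assay of compound-blocked KRAS(G12D)–SOS1 interaction, run without GTP. Compounds were tested as 3-fold dilutions from 20 µM to 1.02 nM and incubated with the reaction components for 3 hr at 4 °C, sealed. IC50 was taken as the concentration giving 50% of maximal inhibition.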

[2] = test system: AGS gastric carcinoma cells [heterozygous G12D]; test: Cancer cell line proliferation (CellTiter-Glo), AGS; format: cell-based; conditions: 72 hr treatment, read-out: AGS CTG (EC50)
Method in brief: (§1)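 Cells at 4,000/well grown 72 hr, then treated with 3-fold serial dilutions (20 μM to 1.02 nM, 0.5% DMSO final) for 72 hr at 37° C/5% CO2. Viability by CellTiter-Glo luminescence; EC50 values calculated.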

[3] = test system: A-427 lung carcinoma cells [heterozygous G12D]; test: Cancer cell line proliferation (CellTiter-Glo), A-427; format: cell-based; conditions: A-427 cells, 72 hr treatment, read-out: A427 CTG (EC50)
Method in brief: as §1

[4] = test system: ASPC1 pancreatic adenocarcinoma cells [homozygous G12D]; test: Cancer cell line proliferation (CellTiter-Glo), ASPC1; format: cell-based; conditions: 72 hr treatment, read-out: ASPC-1 CTG (EC50)
Method: The following cancer cell lines were employed: AGS gastric carcinoma [heterozygous G12D](ATCC, CRL-1739); A-427 lung carcinoma [heterozygous G12D](ATCC, HTB-53); ASPC1 pancreatic adenocarcinoma [homozygous G12D](ATCC, CRL-1682) and SW1990 pancreatic adenocarcinoma [homozygous G12D](ATCC CRL-2172). Cell lines were cultured essentially according to ATCC recommendations.
AGS, A-427, ASPC1, SW1990, and GP2D cells were plated in 96-well tissue culture plates at 4,000 cells/well and incubated at 37° C./5% CO2 for 72 hr in 100 μl of media. 3-fold serial dilutions of each test compound were prepared ranging from 20 μM to 1.02 nM. Each cell line was then treated with test compounds at various concentrations with a final concentration of 0.5% DMSO/well, and then incubated at 37° C./5% CO2 for 72 hr. 100 µl of CellTiter-Glo® Reagent (Promega Corporation, Madison, WI) was added to each well and processed according manufacturer's protocol. Results were analyzed and EC50 values were calculated in GraphPad 7 software.

T1 sequence (P01116 1-188 isoform P01116-2 G12D): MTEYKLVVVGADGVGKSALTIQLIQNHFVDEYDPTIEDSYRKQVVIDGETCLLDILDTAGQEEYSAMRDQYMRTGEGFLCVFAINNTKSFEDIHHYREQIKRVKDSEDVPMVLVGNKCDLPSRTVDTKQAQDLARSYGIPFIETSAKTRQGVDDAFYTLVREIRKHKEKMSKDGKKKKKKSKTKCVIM

Row | SMILES | IC50 [1] | EC50 ([2]; Homo sapiens) | EC50 ([3]; Homo sapiens) | EC50 ([4]; Homo sapiens, ASPC1, 72 h) | EC50 [4] | EC50 [2] | EC50 [3]
1 | CCNC(=O)c1nnc(-c2cc(C(C)C)c(O)cc2O)n1-c1ccc(CN2CCN([C@H]3C[C@@H](COc4nc(N5CC6CCC(C5)N6)c5cnc(-c6cccc7cccc(C)c67)c(F)c5n4)N(C)C3)CC2)cc1 [Compound 29] | 100 to 1000 nM | < 100 nM | < 100 nM | 100 to 1000 nM | – | – | –
2 | CC(C)c1cc(-c2nnc(O)n2-c2ccc(CN3CCN([C@H]4C[C@@H](COc5nc(N6CC7CCC(C6)N7)c6cnc(-c7cccc8ccccc78)c(F)c6n5)N(C)C4)CC3)cc2)c(O)cc1O [Compound 30] | > 1000 nM | 100 to 1000 nM | 100 to 1000 nM | > 1000 nM | – | – | –
3 | CCNC(=O)c1nnc(-c2cc(C(C)C)c(O)cc2O)n1-c1ccc(CN2CCN([C@H]3C[C@@H](COc4nc(N5CC6CCC(C5)N6)c5cnc(-c6cc(O)cc7ccccc67)c(F)c5n4)N(C)C3)CC2)cc1 [Compound 31] | < 100 nM | 100 to 1000 nM | 100 to 1000 nM | > 1000 nM | – | – | –
4 | CC(C)c1cc(-c2nnc(O)n2-c2ccc(CN3CCC(C(=O)C4CCN([C@H]5C[C@@H](COc6nc(N7CC8CCC(C7)N8)c7cnc(-c8cc(O)cc9ccccc89)c(F)c7n6)N(C)C5)CC4)CC3)cc2)c(O)cc1O [Compound 32] | < 100 nM | 100 to 1000 nM | 100 to 1000 nM | > 1000 nM | – | – | –
5 | CC(C)c1cc(-c2nnc(O)n2-c2ccc(CN3CCN([C@H]4C[C@@H](COc5nc(N6CC7CCC(C6)N7)c6cnc(-c7cc(O)cc8ccccc78)c(F)c6n5)N(C)C4)CC3)cc2)c(O)cc1O [Compound 33] | < 100 nM | 100 to 1000 nM | > 1000 nM | > 1000 nM | – | – | –
6 | CCNC(=O)c1nnc(-c2cc(C(C)C)c(O)cc2O)n1-c1ccc(CN2CCN([C@H]3C[C@@H](COc4nc(N5CC6CCC(C5)N6)c5cnc(-c6cccc7ccccc67)c(F)c5n4)N(C)C3)CC2)cc1 [Compound 34] | > 1000 nM | < 100 nM | 100 to 1000 nM | 100 to 1000 nM | – | – | –
7 | C#Cc1cccc2cccc(-c3ncc4c(N5CC6CCC(C5)N6)nc(OC[C@@H]5C[C@H](N6CCN(Cc7ccc(-n8c(C(=O)NCC)nnc8-c8cc(C(C)C)c(O)cc8O)cc7)CC6)CN5C)nc4c3F)c12 [Compound 36] | < 100 nM | < 100 nM | 100 to 1000 nM | 100 to 1000 nM | – | – | –
8 | Cc1cccc2cccc(-c3ncc4c(N5CC6CCC(C5)N6)nc(OC[C@@H]5C[C@H](N6CCN(Cc7ccc8c(c7)CN(C(=O)c7cc(C(C)C)c(O)cc7O)C8)CC6)CN5C)nc4c3F)c12 [Compound 37] | < 100 nM | 100 to 1000 nM | 100 to 1000 nM | – | 100 to 1000 nM | – | –
9 | CCNC(=O)c1nnc(-c2cc(C(C)C)c(O)cc2O)n1-c1ccc(CN2CCC(C(=O)N3CCN([C@H]4C[C@@H](COc5nc(N6CC7CCC(C6)N7)c6cnc(-c7cc(O)cc8ccccc78)c(F)c6n5)N(C)C4)CC3)CC2)cc1 [Compound 38] | < 100 nM | 100 to 1000 nM | 100 to 1000 nM | 100 to 1000 nM | – | – | –
10 | C#Cc1cccc2cccc(-c3ncc4c(N5CC6CCC(C5)N6)nc(OC[C@@H]5CC[C@H](CN6CCN(Cc7ccc8c(c7)CN(C(=O)c7cc(C(C)C)c(O)cc7O)C8)CC6)N5C)nc4c3F)c12 [Compound 39] | < 100 nM | 100 to 1000 nM | 100 to 1000 nM | > 1000 nM | – | – | –
11 | CCNC(=O)c1nnc(-c2cc(C(C)C)c(O)cc2O)n1-c1ccc(CN(C)[C@@H]2CN3CCC[C@]3(COc3nc(N4CC5CCC(C4)N5)c4cnc(-c5cc(O)cc6ccccc56)c(F)c4n3)C2)cc1 [Compound 40] | < 100 nM | 100 to 1000 nM | 100 to 1000 nM | > 1000 nM | – | – | –
12 | CCNC(=O)c1nnc(-c2cc(C(C)C)c(O)cc2O)n1-c1ccc(CN(C)[C@@H]2CN3CCC[C@@]3(COc3nc(N4CC5CCC(C4)N5)c4cnc(-c5cc(O)cc6ccccc56)c(F)c4n3)C2)cc1 [Compound 41] | < 100 nM | 100 to 1000 nM | > 1000 nM | 100 to 1000 nM | – | – | –
13 | CC(C)c1cc(-c2nnc(O)n2-c2ccc(CN(C)[C@@H]3CN4CCC[C@]4(COc4nc(N5CC6CCC(C5)N6)c5cnc(-c6cc(O)cc7ccccc67)c(F)c5n4)C3)cc2)c(O)cc1O [Compound 42] | < 100 nM | > 1000 nM | > 1000 nM | > 1000 nM | – | – | –
14 | CC(C)c1cc(-c2nnc(O)n2-c2ccc(CN(C)[C@@H]3CN4CCC[C@]4(COc4nc(N5CC6CCC(C5)N6)c5cnc(-c6cc(O)cc7ccccc67)c(F)c5n4)C3)cc2)c(O)cc1O [Compound 43] | < 100 nM | – | – | – | > 1000 nM | > 1000 nM | > 1000 nM
15 | CC(C)c1cc(C(=O)N2Cc3ccc(CN(C)[C@H]4CN5CCC[C@@]5(COc5nc(N6CC7CCC(C6)N7)c6cnc(-c7cc(O)cc8ccccc78)c(F)c6n5)C4)cc3C2)c(O)cc1O [Compound 44] | < 100 nM | 100 to 1000 nM | 100 to 1000 nM | > 1000 nM | – | – | –
16 | CC(C)c1cc(C(=O)N2Cc3ccc(CN(C)[C@H]4CN5CCC[C@]5(COc5nc(N6CC7CCC(C6)N7)c6cnc(-c7cc(O)cc8ccccc78)c(F)c6n5)C4)cc3C2)c(O)cc1O [Compound 45] | 100 to 1000 nM | 100 to 1000 nM | 100 to 1000 nM | > 1000 nM | – | – | –
17 | CC(C)c1cc(C(=O)N2Cc3ccc(CN4CCC(C(=O)N(C)[C@H]5CN6CCC[C@@]6(COc6nc(N7CC8CCC(C7)N8)c7cnc(-c8cc(O)cc9ccccc89)c(F)c7n6)C5)CC4)cc3C2)c(O)cc1O [Compound 49] | < 100 nM | 100 to 1000 nM | 100 to 1000 nM | > 1000 nM | – | – | –
18 | CC(C)c1cc(C(=O)N2Cc3ccc(CN4CCC(C(=O)N(C)[C@H]5CN6CCC[C@]6(COc6nc(N7CC8CCC(C7)N8)c7cnc(-c8cc(O)cc9ccccc89)c(F)c7n6)C5)CC4)cc3C2)c(O)cc1O [Compound 50] | < 100 nM | 100 to 1000 nM | 100 to 1000 nM | 100 to 1000 nM | – | – | –
19 | Cc1cccc(-c2ncc3c(N4CC5CCC(C4)N5)nc(OC[C@@H]4C[C@H](N5CCN(Cc6ccc(-n7c(O)nnc7-c7cc(C(C)C)c(O)cc7O)cc6)CC5)CN4C)nc3c2F)c1C [Compound 52] | > 1000 nM | 100 to 1000 nM | 100 to 1000 nM | > 1000 nM | – | – | –
20 | CCNC(=O)c1nnc(-c2cc(C(C)C)c(O)cc2O)n1-c1ccc(CN2CCN([C@H]3C[C@@H](COc4nc(N5CC6CCC(C5)N6)c5cnc(-c6cccc(C)c6C)c(F)c5n4)N(C)C3)CC2)cc1 [Compound 53] | < 100 nM | < 100 nM | 100 to 1000 nM | 100 to 1000 nM | – | – | –
21 | CCNC(=O)c1nnc(-c2cc(C(C)C)c(O)cc2O)n1-c1ccc(CN2CCN([C@H]3C[C@@H](COc4nc(N5CC6CCC(C5)N6)c5cnc(-c6cccc7cccc(C#N)c67)c(F)c5n4)N(C)C3)CC2)cc1 [Compound 59] | > 1000 nM | < 100 nM | 100 to 1000 nM | 100 to 1000 nM | – | – | –
22 | CCNC(=O)c1nnc(-c2cc(C(C)C)c(O)cc2O)n1-c1ccc(CN2CCN([C@H]3C[C@@H](COc4nc(N5CC6CCC(C5)N6)c5cnc(-c6ccccc6C(F)(F)F)c(F)c5n4)N(C)C3)CC2)cc1 [Compound 60] | > 1000 nM | < 100 nM | 100 to 1000 nM | 100 to 1000 nM | – | – | –
23 | Cc1c(F)cccc1-c1ncc2c(N3CC4CCC(C3)N4)nc(OC[C@@H]3C[C@H](N4CCN(Cc5ccc6c(c5)CN(C(=O)c5cc(C(C)C)c(O)cc5O)C6)CC4)CN3C)nc2c1F [Compound 61] | > 1000 nM | 100 to 1000 nM | 100 to 1000 nM | 100 to 1000 nM | – | – | –
24 | CCNC(=O)c1nnc(-c2cc(C(C)C)c(O)cc2O)n1-c1ccc(CN2CCN([C@H]3C[C@@H](COc4nc(N5CC6CCC(C5)N6)c5cnc(-c6cccc(F)c6C)c(F)c5n4)N(C)C3)CC2)cc1 [Compound 62] | > 1000 nM | < 100 nM | < 100 nM | 100 to 1000 nM | – | – | –
25 | CC(C)c1cc(C(=O)N2Cc3ccc(CN4CCN([C@H]5C[C@@H](COc6nc(N7CC8CCC(C7)N8)c7cnc(-c8cccc9cccc(C#N)c89)c(F)c7n6)N(C)C5)CC4)cc3C2)c(O)cc1O [Compound 63] | 100 to 1000 nM | 100 to 1000 nM | < 100 nM | 100 to 1000 nM | – | – | –
26 | CC(C)c1cc(C(=O)N2Cc3ccc(CN4CCN(C[C@H]5CC[C@@H](COc6nc(N7CC8CCC(C7)N8)c7cnc(-c8cc(O)cc9ccccc89)c(F)c7n6)N5C)CC4)cc3C2)c(O)cc1O [Compound 64] | < 100 nM | 100 to 1000 nM | 100 to 1000 nM | 100 to 1000 nM | – | – | –
